Reference: US8765736B2, “Benzenesulfonamide compounds and the use thereof” (Purdue Pharma L.P., priority 2007, dated 2014)

Assays:
[1] = molecular target: T1, N-type calcium channel (NTCC) (Homo sapiens, UniProt Q00975); test: FLIPR calcium mobilization assay for N-type calcium channel; type: cell-based; conditions: calcium mobilization in vitro assay; differentiated IMR32 cells, 5 μM nitrendipine, 90 mM KCl
T1 construct: endogenous in cells; host or cells: IMR32 cells (ATCC), differentiated with dibutyryl cAMP and bromodeoxyuridine
Protocol: Cell maintenance and differentiation. Unless noted otherwise, cell culture reagents were purchased from Mediatech of Herndon, Md. IMR32 cells (American Type Culture Collection, ATCC, Manassas, Va.) were routinely cultured in growth medium consisting of minimum essential medium containing 10% fetal bovine serum (FBS, Hyclone, Logan, Utah), 100 U/mL penicillin, 100 μg/mL streptomycin, 2 mM L-glutamine, 1 mM sodium pyruvate, and 1×MEM non-essential amino acids. 80-90% confluent flasks of cells were differentiated using the following differentiation medium: Growth medium plus 1 mM dibutyryl cyclic AMP (Sigma, St. Louis, Mo.), and 2.5 μM bromodeoxyuridine (Sigma). Cells were differentiated for 8 days by replacing differentiation medium every 2-3 days.
FLIPR Calcium Mobilization Assay for N-type Calcium Channel. One day prior to performing this assay, differentiated IMR32 cells were treated with 1× CellStripper, and seeded on poly-D-lysine-coated 96-well clear-bottom black plates (Becton Dickinson, Franklin Lakes, N.J.) at 200,000 cells/well. On the day of the assay, the cell plates were washed with IMR32 buffer (127 mM NaCl, 1 mM KCl, 2 mM MgCl2, 700 μM NaH2PO4, 5 mM CaCl2, 5 mM NaHCO3, 8 mM HEPES, 10 mM glucose, pH 7.4), then pre-stimulated with KCl and loaded as follows: 0.05 mL of IMR32 buffer, 0.05 mL of each compound tested diluted in IMR32 buffer containing 20 μM nitrendipine (Sigma), and 0.1 mL KCl dissolved in IMR32 buffer, plus Fluo-4 were added (3 μM final concentration, Molecular Probes, Eugene, Oreg.). Final test compound concentrations ranged from about 846 pM to about 17 μM, final nitrendipine concentration was 5 μM, and final KCl concentration was 90 mM. After 1 hour, the cells were washed twice with 0.05 mL of each compound tested in nitrendipine-containing IMR32 buffer (no KCl or Fluo-4), and then replaced with 0.1 mL of each compound tested in nitrendipine-containing IMR32 buffer. Plates were then transferred to a Fluorimetric Imaging Plate Reader (FLIPR^96, Molecular Devices, Inc., Sunnyvale, Calif.) for assay. The FLIPR measured basal Fluo-4 fluorescence for 315 seconds (i.e., 5 minutes and 15 seconds), then added 0.1 mL KCl agonist dissolved in IMR32 buffer and measured fluorescence for another 45 seconds. Final test compound concentrations on the cells after FLIPR read ranged from about 846 pM to about 17 μM, final nitrendipine concentration was 5 μM, and final KCl concentration was 90 mM. Data were collected over the entire time course and analyzed using Excel, Graph Pad Prism (version 3.02, Graph Pad, San Diego, Calif.), or an in-house non-linear regression analysis software.

[2] = molecular target: T2, recombinant rat L-type calcium channel (LTCC) subunits (α1c, α2δ, and β1) (Rattus norvegicus, UniProt P22002); test: FLIPR calcium mobilization assay for L-type calcium channel; type: cell-based; conditions: calcium mobilization in vitro assay; HEK293 cells stably expressing rat LTCC subunits, 90 mM KCl
T2 construct: expressed in transfected cells; α1c in pcDNA6.2DEST, β1 in pcDNA3.2DEST, α2δ in pcDNA3.1-Zeo
Protocol: Recombinant human embryonal kidney cells (HEK293, ATCC) stably transfected with either N-type calcium channel (NTCC) subunits (α1b (SEQ ID NOs: 13 to 15), α2δ (SEQ ID Nos: 16, 17), and β3 (SEQ ID NOs:18 to 20)) or L-type calcium channel (LTCC) subunits (α1c (SEQ ID NOs:21, 22), α2δ, and β1 (SEQ ID NOs:23 to 25)) were routinely cultured in growth medium consisting of Dulbecco's Modified Eagles Medium containing 10% FBS, 100 U/mL penicillin, 100 μg/mL streptomycin, 4 mM L-glutamine, 500 μg/mL geneticin (G418), 20 μg/mL Blasticidin S (InVivogen, San Diego, Calif.) and 500 μg/mL zeocin (InVivogen).
FLIPR Calcium Mobilization Assay for L-type Calcium Channel. One day prior to performing this assay, HEK293 cells stably expressing recombinant rat L-type calcium channel (LTCC) subunits (α1c, α2δ, and β1) were trypsinized, then seeded on poly-D-lysine-coated 96-well clear-bottom black plates (Becton Dickinson, Franklin Lakes, N.J.) at 75,000 cells/well. On the day of the assay, the plates were washed with LTCC wash buffer (127 mM NaCl, 2 mM MgCl2, 700 μM NaH2PO4, 5 mM CaCl2, 5 mM NaHCO3, 8 mM HEPES, 10 mM glucose, pH 7.4), then loaded with 0.1 mL of LTCC wash buffer containing Fluo-4 (3 μM final concentration, Molecular Probes, Eugene, Oreg.). After 1 hour, the cells were washed with 0.1 mL LTCC wash buffer and resuspended in 0.05 mL LTCC assay buffer (same composition as LTCC wash buffer). Plates were then transferred to a FLIPR^96 for assay. The FLIPR measured basal Fluo-4 fluorescence for 15 seconds, then added 0.05 mL of each compound tested diluted in LTCC assay buffer at final concentrations ranging from about 846 pM to about […]. Fluo-4 fluorescence was then measured for 5 minutes. 0.1 mL KCl agonist dissolved in LTCC assay buffer was then added to the cells to produce a final concentration of 90 mM KCl, and fluorescence was measured for another 45 seconds. Data were collected over the entire time course and analyzed using Excel, Graph Pad Prism, or an in-house regression analysis software.
L-type Recombinant Cell Line Development. L-type calcium channel expressing HEK-293 cells were created in two stages. Stage 1 was created as follows. The rat α1c, and β1 cDNA expression constructs (2.5 μg each) were co-transfected into human embryonic kidney (HEK-293) cells by Lipofectamine Plus reagent (Invitrogen), as per manufacturer's instructions. 24 hours later, cells were split in limiting dilution into multiple 96-well plates in selection media containing 20 μg/mL blasticidin and 500 μg/mL geneticin, and incubated for 3 weeks at 37° C., 5% CO2, 95% humidity. Plates containing ≦1 clone per well were cultured until wells positive for single clones were confluent. Individual clones were then arrayed into columns of a destination 96-well plate, and partly split into 6-well plates for culture maintenance. Array plates were washed once with LTCC wash (or assay) buffer and cells loaded for 1 hour with 0.1 mL of LTCC buffer containing Fluo-4 (3 μM final concentration, Molecular Probes). Then they were washed twice with 0.1 mL of LTCC buffer, and replaced with 0.1 mL LTCC buffer. Plates were then transferred to a FLIPR^96 for assay. The FLIPR measured basal Fluo-4 fluorescence for 315 seconds, then added 0.1 mL KCl agonist dissolved in LTCC buffer and measured fluorescence for another 45 seconds. Final KCl concentration was 90 mM. Data were collected over the entire time course and analyzed using Excel, Graph Pad Prism, or Activity Base software. The clone with the greatest signal-to-noise ratio, best stability of response with passage number, and best adhesion to PDL precoated plates (Becton Dickinson) was expanded, characterized and used for stage 2 cell line development.
Stage 2 of L-type cell line development was carried out as follows. The rat α2δ cDNA expression construct (5 μg each) was transfected into the stage 1 L-type clonal cell line by Lipofectamine Plus reagent (Invitrogen), as per manufacturer's instructions. […]

T1 sequence (Q00975 whole entry): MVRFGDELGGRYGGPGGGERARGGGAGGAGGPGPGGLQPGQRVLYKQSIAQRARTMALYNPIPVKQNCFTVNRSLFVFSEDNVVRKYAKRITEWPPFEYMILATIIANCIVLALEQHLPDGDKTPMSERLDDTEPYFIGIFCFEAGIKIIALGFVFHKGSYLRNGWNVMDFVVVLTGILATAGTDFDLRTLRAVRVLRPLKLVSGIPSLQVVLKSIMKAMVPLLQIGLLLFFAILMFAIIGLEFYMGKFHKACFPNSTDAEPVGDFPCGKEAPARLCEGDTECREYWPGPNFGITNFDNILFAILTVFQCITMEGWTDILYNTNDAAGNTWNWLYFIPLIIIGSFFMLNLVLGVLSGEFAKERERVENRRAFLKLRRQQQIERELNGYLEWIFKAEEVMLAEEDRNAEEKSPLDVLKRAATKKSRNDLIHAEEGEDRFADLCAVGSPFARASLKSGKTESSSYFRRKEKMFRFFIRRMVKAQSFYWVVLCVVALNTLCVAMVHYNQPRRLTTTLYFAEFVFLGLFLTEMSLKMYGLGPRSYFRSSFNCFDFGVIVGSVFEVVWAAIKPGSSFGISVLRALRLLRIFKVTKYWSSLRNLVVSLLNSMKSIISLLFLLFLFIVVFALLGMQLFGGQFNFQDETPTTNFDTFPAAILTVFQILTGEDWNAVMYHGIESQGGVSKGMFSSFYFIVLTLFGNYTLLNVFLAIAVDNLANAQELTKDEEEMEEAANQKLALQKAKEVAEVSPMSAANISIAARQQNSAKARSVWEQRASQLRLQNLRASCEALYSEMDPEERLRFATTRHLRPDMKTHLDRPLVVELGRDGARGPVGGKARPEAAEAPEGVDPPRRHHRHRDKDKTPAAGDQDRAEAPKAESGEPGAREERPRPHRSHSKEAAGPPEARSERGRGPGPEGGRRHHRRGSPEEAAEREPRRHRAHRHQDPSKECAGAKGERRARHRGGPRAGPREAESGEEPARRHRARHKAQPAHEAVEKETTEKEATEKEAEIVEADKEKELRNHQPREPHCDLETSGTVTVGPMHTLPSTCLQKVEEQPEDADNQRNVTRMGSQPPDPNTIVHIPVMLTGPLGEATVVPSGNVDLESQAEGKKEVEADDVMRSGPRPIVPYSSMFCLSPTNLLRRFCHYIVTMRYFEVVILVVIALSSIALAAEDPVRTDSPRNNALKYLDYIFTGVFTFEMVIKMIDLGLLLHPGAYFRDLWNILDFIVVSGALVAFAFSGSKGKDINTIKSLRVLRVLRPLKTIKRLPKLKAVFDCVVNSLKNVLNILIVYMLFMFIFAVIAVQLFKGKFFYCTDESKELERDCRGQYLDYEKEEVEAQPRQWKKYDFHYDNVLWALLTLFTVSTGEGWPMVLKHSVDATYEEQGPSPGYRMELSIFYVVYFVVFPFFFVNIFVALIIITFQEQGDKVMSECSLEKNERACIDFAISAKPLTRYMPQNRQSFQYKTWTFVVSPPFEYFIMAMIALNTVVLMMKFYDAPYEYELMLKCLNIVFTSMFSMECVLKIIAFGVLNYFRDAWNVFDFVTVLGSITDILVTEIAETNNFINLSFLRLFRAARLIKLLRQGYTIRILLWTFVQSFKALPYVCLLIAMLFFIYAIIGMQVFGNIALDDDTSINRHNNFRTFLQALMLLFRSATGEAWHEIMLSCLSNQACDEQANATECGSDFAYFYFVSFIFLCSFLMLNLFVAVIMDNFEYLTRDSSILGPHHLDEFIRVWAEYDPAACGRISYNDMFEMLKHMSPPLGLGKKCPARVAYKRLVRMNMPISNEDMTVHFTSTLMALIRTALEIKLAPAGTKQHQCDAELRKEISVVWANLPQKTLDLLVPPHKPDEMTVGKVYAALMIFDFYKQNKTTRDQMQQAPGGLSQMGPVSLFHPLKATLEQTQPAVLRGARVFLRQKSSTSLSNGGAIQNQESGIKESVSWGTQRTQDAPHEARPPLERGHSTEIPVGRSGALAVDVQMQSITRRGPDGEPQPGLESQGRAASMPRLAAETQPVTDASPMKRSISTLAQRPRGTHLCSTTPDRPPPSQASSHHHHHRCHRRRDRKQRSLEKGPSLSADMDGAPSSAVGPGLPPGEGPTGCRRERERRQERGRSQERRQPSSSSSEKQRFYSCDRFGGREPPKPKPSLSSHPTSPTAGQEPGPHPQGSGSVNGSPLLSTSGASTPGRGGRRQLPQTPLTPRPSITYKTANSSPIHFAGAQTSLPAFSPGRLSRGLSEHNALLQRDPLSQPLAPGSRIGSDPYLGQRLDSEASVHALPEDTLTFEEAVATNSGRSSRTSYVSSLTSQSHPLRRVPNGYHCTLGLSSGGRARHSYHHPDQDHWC
T1 sequence (P54289 25-956 partner limits assumed): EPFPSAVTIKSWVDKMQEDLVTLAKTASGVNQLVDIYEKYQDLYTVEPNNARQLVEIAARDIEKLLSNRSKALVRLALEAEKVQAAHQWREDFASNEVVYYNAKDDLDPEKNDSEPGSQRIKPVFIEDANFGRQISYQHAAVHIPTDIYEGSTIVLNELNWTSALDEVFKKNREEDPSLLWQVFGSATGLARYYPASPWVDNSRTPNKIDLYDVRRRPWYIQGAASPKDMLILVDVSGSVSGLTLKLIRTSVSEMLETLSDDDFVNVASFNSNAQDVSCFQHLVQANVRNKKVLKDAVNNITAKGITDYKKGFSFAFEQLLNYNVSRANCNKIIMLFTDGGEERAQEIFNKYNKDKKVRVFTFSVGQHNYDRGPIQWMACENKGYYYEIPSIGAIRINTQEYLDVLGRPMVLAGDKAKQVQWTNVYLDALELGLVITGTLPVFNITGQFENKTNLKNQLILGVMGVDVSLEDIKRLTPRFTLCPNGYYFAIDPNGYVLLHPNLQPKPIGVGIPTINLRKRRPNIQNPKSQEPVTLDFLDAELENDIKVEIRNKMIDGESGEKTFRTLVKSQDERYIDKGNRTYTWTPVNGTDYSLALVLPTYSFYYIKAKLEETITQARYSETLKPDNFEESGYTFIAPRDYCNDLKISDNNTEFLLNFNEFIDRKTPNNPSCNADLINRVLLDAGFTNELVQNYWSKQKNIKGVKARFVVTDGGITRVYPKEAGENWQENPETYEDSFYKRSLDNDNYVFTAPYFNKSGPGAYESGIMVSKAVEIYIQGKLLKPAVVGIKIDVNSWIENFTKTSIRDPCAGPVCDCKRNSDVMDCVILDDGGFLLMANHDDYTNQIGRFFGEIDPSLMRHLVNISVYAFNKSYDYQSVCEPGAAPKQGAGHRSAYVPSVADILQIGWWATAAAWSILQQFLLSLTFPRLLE
T1 sequence (P54289 957-1103 partner limits assumed): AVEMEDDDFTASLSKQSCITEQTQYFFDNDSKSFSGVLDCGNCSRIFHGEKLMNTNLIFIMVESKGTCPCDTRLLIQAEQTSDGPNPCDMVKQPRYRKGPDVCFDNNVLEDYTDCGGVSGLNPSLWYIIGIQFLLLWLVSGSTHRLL
T1 sequence (P54284 whole entry partner): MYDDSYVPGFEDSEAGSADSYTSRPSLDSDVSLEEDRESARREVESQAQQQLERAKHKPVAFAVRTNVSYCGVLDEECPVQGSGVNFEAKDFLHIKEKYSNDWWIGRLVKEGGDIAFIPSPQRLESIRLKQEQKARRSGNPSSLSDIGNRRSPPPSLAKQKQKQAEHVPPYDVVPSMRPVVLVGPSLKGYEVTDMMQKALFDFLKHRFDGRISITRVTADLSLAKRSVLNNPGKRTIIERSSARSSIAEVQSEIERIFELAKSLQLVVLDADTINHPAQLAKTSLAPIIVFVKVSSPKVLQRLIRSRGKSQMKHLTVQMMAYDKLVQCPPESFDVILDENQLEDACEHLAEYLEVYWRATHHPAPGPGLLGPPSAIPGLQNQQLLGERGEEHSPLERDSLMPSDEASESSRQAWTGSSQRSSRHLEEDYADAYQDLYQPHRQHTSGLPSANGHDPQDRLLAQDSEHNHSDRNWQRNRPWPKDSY

Row | SMILES | IC50 [1] [nM] | IC50 [2] [nM]
1 | O=C(NCCN1CCC(N(C2CC2)S(=O)(=O)c2cccc(C(F)(F)F)c2)CC1)c1cc(C(F)(F)F)cc(C(F)(F)F)c1 [Compound 14b, N-(2-{4-[Cyclopropyl-(3-trifluoromethylbenzenesulfonyl)amino]piperidin-1-yl}ethyl)-3,5-bis(trifluoromethyl)phenylbenzamide] | 1130 | 
2 | CC(C)(C(=O)Nc1ccc(F)cc1)N1CCC(N(C2CC2)S(=O)(=O)c2cccc(C(F)(F)F)c2)CC1 [Compound 21b, 2-{-4-[Cyclopropyl-(3-trifluoromethyl-benzenesulfonyl)-amino]-piperidin-1-yl}-N-(4-fluoro-phenyl)-isobutyramide] | 600 | > 20000
3 | CC(C(=O)Nc1ccccc1)N1CCC(N(C2CC2)S(=O)(=O)c2cccc(C(F)(F)F)c2)CC1 (centres unmarked) [Compound 27b, 2-{4-[Cyclopropyl-(3-trifluoromethyl-benzenesulfonyl)-amino]piperidin-1-yl}-N-phenyl-propionamide] | 390 | > 20000
4 | O=C(NCCN1CCC(N(C2CC2)S(=O)(=O)c2cccc(C(F)(F)F)c2)CC1)c1ccc(F)cc1 [Compound 14a, N-(2-{-4-[Cyclopropyl-(3-trifluoromethylbenzenesulfonyl)amino]piperidin-1-yl}ethyl)-4-fluorobenzamide] | 380 | 6740
5 | CC(C)(C(=O)Nc1ccc(F)cc1Cl)N1CCC(N(C2CC2)S(=O)(=O)c2cccc(C(F)(F)F)c2)CC1 [Compound 21a, N-(2-Chloro-4-fluorophenyl)-2-{-4-[cyclopropyl-(3-trifluoromethyl-benzenesulfonyl)-amino]-piperidin-1-yl}-isobutyramide] | 1600 | 
6 | CC(C)N(C1CCN(CCC(=O)N2CCCCC2)CC1)S(=O)(=O)c1cccc(C(F)(F)F)c1 [Compound 18, N-Isopropyl-N-[1-(3-oxo-3-piperidin-1-yl-propyl)-piperidin-4-yl]-3-trifluoromethyl-benzenesulfonamide] | 770 | > 20000
7 | CCOC(=O)c1ccc(N2CCC(N(C3CC3)S(=O)(=O)c3cccc(C(F)(F)F)c3)CC2)cc1 [Compound 10d, 4-{-4-[Cyclopropyl-(3-trifluoromethyl-benzenesulfonyl)amino]piperidin-1-yl}benzoic acid ethyl ester] | 1310 | 
8 | O=C(CN1CCC(N(C2CC2)S(=O)(=O)c2cccc(C(F)(F)F)c2)CC1)Oc1ccc(Cl)cc1 [Compound 8c, {-4-[Cyclopropyl-(3-trifluoromethyl-benzenesulfonyl)amino]piperidin-1-yl}acetic acid 4-chlorophenyl ester] | 600 | > 20000
9 | CCOC(=O)C(C)N1CCC(N(C(C)C)S(=O)(=O)c2cccc(C(F)(F)F)c2)CC1 (centres unmarked) [Compound 8a, 2-[4-[Isopropyl-(3-trifluoromethyl-benzenesulfonyl)amino]piperidin-1-yl}propionic acid ethyl ester] | 1010 | 
10 | CC(C)N(C1CCN(CC(=O)NC2CC3CCC2C3)CC1)S(=O)(=O)c1cccc(C(F)(F)F)c1 (centres unmarked) [Compound 31d, N-Bicyclo[2.2.1]hept-2-yl-2-{4-[isopropyl-(3-trifluoromethyl-benzenesulfonyl)-amino]-piperidin-1-yl}-acetamide] | 340 | 4120
11 | CCOC(=O)c1cc(F)cc(N2CCC(N(C3CC3)S(=O)(=O)c3cccc(C(F)(F)F)c3)CC2)c1 [Compound 10c, 3-{-4-[Cyclopropyl-(3-trifluoromethyl-benzenesulfonyl)amino]piperidin-1-yl}-5-fluorobenzoic acid ethyl ester] | 1070 | 
12 | CC(C)N(C1CCN(C2CCN(c3ccccc3)C2=O)CC1)S(=O)(=O)c1cccc(C(F)(F)F)c1 (centres unmarked) [Compound 27a, N-Isopropyl-N-[1-(2-oxo-1-phenyl-pyrrolidin-3-yl)-piperidin-4-yl]-3-trifluoromethyl-benzenesulfonamide] | 550 | > 20000
13 | CCOC(=O)c1cccnc1N1CCC(N(C2CC2)S(=O)(=O)c2cccc(C(F)(F)F)c2)CC1 [Compound 10b, 4-[Cyclopropyl-(3-trifluoromethyl-benzenesulfonyl)amino]-3,4,5,6-tetrahydro-2H-[1,2′]-bipyridinyl-3′-carboxylic acid ethyl ester] | 1440 | 
14 | CC(C)N(C1CCN(CC(=O)NC2CCOC2)CC1)S(=O)(=O)c1cccc(C(F)(F)F)c1 (centres unmarked) [Compound 31e, 2-{4-[Isopropyl-(3-trifluoromethyl-benzenesulfonyl)-amino]-piperidin-1-yl}-N-(tetrahydrofuran-3-yl)-acetamide] | 3200 | 
15 | O=S(=O)(c1cccc(C(F)(F)F)c1)N(C1CC1)C1CCN(c2cc(C(F)(F)F)cc(C(F)(F)F)c2)CC1 [Compound 10e, N-[1-(3,5-Bis-(trifluoromethyl)phenyl)piperidin-1-yl]-N-cyclopropyl-3-trifluoromethylbenzenesulfonamide] | 6270 | 
16 | CC(C)N(C1CCN(CC(=O)N2CCCC2)CC1)S(=O)(=O)c1cccc(C(F)(F)F)c1 [Compound 31b, N-Isopropyl-N-[1-(2-oxo-2-pyrrolidin-1-yl-ethyl)-piperidin-4-yl]-3-trifluoromethyl-benzenesulfonamide] | 1610 | 
